Experiments:
EGFR (human) [1] = molecular target: EGFR (human) (UniProt P00533); conditions: sk-br-3
EGFR (human) [2] = molecular target: EGFR (human) (UniProt P00533); conditions: mda468
EGFR (mice) = EGFR (mice) (UniProt P00533); conditions: swiss 3t3 fibroblast, dose or concentration not given here
EGFR (human) [3] = molecular target: EGFR (human) (UniProt P00533); conditions: a431

Sequence of EGFR (human) (P00533 whole entry, looked up): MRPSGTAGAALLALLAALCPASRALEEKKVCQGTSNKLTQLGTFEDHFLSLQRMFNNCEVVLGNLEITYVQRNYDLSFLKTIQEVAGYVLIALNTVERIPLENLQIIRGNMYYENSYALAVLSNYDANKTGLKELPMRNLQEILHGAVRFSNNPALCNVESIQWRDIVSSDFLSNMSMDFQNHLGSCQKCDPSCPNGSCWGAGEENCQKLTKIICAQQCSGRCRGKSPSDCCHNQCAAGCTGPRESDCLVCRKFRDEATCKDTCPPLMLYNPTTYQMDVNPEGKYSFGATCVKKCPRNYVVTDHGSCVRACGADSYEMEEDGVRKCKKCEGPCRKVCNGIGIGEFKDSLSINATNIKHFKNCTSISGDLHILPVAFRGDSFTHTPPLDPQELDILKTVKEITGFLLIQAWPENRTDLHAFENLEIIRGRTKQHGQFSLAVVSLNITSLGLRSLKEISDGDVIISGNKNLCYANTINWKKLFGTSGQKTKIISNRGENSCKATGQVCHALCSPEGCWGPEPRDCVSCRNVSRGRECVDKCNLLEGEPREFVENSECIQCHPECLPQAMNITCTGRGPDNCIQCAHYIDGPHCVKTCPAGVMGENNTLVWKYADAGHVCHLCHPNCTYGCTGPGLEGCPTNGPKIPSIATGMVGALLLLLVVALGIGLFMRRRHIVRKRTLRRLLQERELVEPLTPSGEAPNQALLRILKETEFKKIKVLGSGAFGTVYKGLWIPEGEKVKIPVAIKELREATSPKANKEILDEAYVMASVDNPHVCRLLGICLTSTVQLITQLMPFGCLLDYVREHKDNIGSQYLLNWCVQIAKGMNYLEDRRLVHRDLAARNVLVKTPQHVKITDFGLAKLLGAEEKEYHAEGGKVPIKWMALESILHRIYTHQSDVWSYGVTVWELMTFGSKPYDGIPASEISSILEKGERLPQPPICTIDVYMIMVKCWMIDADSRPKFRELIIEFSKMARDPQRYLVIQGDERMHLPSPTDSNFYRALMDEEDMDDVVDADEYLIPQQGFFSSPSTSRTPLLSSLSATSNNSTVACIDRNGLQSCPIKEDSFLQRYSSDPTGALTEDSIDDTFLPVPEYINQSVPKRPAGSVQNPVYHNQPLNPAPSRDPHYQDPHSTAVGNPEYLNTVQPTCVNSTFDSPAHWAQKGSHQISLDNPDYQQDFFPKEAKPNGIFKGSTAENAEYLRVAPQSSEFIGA
Sequence of EGFR (mice) (P00533 whole entry, looked up): as above

SMILES | IC50 (EGFR (human) [1]) [nM] | also measured
CNc1ccc2ncnc(Nc3cccc(Br)c3)c2n1 | 100 | 
CNc1cc2c(Nc3cccc(Br)c3)ncnc2cn1 | < 10 | IC50 (EGFR (human) [2]): 3000 nM
Nc1ccc2ncnc(Nc3cccc(Br)c3)c2n1 | 2660 | 
COc1cc2c(Nc3cccc(Br)c3)ncnc2cn1 | < 10 | 
CN(C)c1cc2c(Nc3cccc(Br)c3)ncnc2cn1 | 39 | IC50 (EGFR (human) [2]): 12000 nM
Nc1cc2ncnc(NCc3ccccc3)c2cn1 |  | inhibition (EGFR (mice)): 5%
Nc1cc2ncnc(Nc3cccc([N+](=O)[O-])c3)c2cn1 | 1500 | 
Nc1cc2ncnc(Nc3cccc(Br)c3)c2cn1 | 800 | 
CN(C)c1ccc2ncnc(Nc3cccc(Br)c3)c2n1 | 71 | 
c1ccc(CNc2ncnc3[nH]ccc23)cc1 | > 1000 | IC50 (EGFR (human) [3]): > 1000 nM
NNc1ncc2c(NCc3ccccc3)ncnc2n1 | < 10 | IC50 (EGFR (human) [3]): 124 nM
Fc1ccc2ncnc(Nc3cccc(Br)c3)c2n1 | > 10000 | 

From the Kinase Knowledgebase extract (Sharma et al. 2016)
